Reference: ChEMBL document CHEMBL1201862, “PubChem BioAssay data set” (2004)
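Tested at 5 concentrations; 48 h exposure; 96-well plates; endpoints linearly interpolated, else capped at highest concentration. Here, GI50 denotes the concentration required for 50% inhibition of growth.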 The source made the active and inactive calls. Rule as the data show it: active = GI50 up to about 1.1 µM and inactive = higher.

Legend:
Test in all cases: NCI anticancer screen, dose series, 48 h
NCI-H23 = tested on: NCI-H23
OVCAR-8 = tested on: OVCAR-8
786-0 = tested on: 786-0
OVCAR-4 = tested on: OVCAR-4
SK-OV-3 = tested on: SK-OV-3
DMS-114 = tested on: DMS-114
UACC-257 = tested on: UACC-257
XF498 = tested on: XF498
M19-MEL = tested on: M19-MEL
TK-10 = tested on: TK-10
RPMI-8226 = tested on: RPMI-8226
SNB-78 = tested on: SNB-78
UO-31 = tested on: UO-31
SF-268 = tested on: SF-268
SK-MEL-28 = tested on: SK-MEL-28
ACHN = tested on: ACHN
NCI-H522 = tested on: NCI-H522
KM12 = tested on: KM12
HL-60 = tested on: HL-60
A549 = tested on: A549
K562 = tested on: K562
UACC-62 = tested on: UACC-62
RXF 393 = tested on: RXF 393
Malme-3M = tested on: Malme-3M
LXFL 529 = tested on: LXFL 529
HOP-92 = tested on: HOP-92
SK-MEL-2 = tested on: SK-MEL-2
SNB-75 = tested on: SNB-75
MOLT-4 = tested on: MOLT-4
EKVX = tested on: EKVX
SK-MEL-5 = tested on: SK-MEL-5
HCC 2998 = tested on: HCC 2998
NCI-H460 = tested on: NCI-H460
SF-295 = tested on: SF-295
SW-620 = tested on: SW-620
DU-145 = tested on: DU-145
HOP-62 = tested on: HOP-62
SF-539 = tested on: SF-539
LOX IMVI = tested on: LOX IMVI
CCRF-CEM = tested on: CCRF-CEM
NCI/ADR-RES = tested on: NCI/ADR-RES
NCI-H226 = tested on: NCI-H226
A498 = tested on: A498
IGROV-1 = tested on: IGROV-1
PC-3 = tested on: PC-3
U-251 = tested on: U-251
OVCAR-3 = tested on: OVCAR-3
SNB-19 = tested on: SNB-19
MDA-MB-231 = tested on: MDA-MB-231
MDA-N = tested on: MDA-N
T47D = tested on: T47D
SR = tested on: SR
HCT-15 = tested on: HCT-15
Hs-578T = tested on: Hs-578T
HCT-116 = tested on: HCT-116
COLO 205 = tested on: COLO 205
MCF7 = tested on: MCF7
BT-549 = tested on: BT-549
SN12C = tested on: SN12C
M14 = tested on: M14
MDA-MB-435 = tested on: MDA-MB-435
CAKI-1 = tested on: CAKI-1
HT-29 = tested on: HT-29
OVCAR-5 = tested on: OVCAR-5

In the case of `COc1ccc(CNc2cc(OC)cc(OC)c2)cc1`, the GI50 (NCI-H23) was > 80.2 µM (inactive), the GI50 (OVCAR-8) was > 69.8 µM (inactive) and the GI50 (786-0) was > 52.2 µM (inactive). For the same compound, the GI50 (OVCAR-4) was 77.1 µM (inactive), the GI50 (SK-OV-3) was > 80 µM (inactive) and the GI50 (DMS-114) was 49 µM (inactive). The GI50 (UACC-257) was > 91.8 µM (inactive), the GI50 (XF498) was > 100 µM (inactive) and the GI50 (M19-MEL) was > 100 µM (inactive). The GI50 (TK-10) was > 100 µM (inactive), the GI50 (RPMI-8226) was 58.9 µM (inactive) and the GI50 (SNB-78) was 38.1 µM (inactive). The GI50 (UO-31) was 49.2 µM (inactive), the GI50 (SF-268) was > 62.1 µM (inactive) and the GI50 (SK-MEL-28) was 44.4 µM (inactive). For the same compound, the GI50 (ACHN) was > 100 µM (inactive), the GI50 (NCI-H522) was 35.8 µM (inactive) and the GI50 (KM12) was 84.3 µM (inactive). The GI50 (HL-60) was > 46.5 µM (inactive), the GI50 (A549) was > 100 µM (inactive) and the GI50 (K562) was 22.4 µM (inactive). The GI50 (UACC-62) was 87.7 µM (inactive), the GI50 (RXF 393) was > 68.4 µM (inactive) and the GI50 (Malme-3M) was > 72.8 µM (inactive). The GI50 (LXFL 529) was 85.7 µM (inactive), the GI50 (HOP-92) was 65.5 µM (inactive) and the GI50 (SK-MEL-2) was > 85.7 µM (inactive). The GI50 (SNB-75) was > 42 µM (inactive), the GI50 (MOLT-4) was > 81.8 µM (inactive) and the GI50 (EKVX) was > 76.6 µM (inactive). The GI50 (SK-MEL-5) was 60.5 µM (inactive) and the GI50 (HCC 2998) was > 100 µM (inactive).
In the case of `CC(C)C1CC(CO)(CNc2nc(N)nc(Cl)c2/C=N\O)C1` (stereo unspecified), the GI50 (NCI-H460) was 0.685 µM (active), the GI50 (NCI-H23) was 0.519 µM (active) and the GI50 (SF-295) was 1.01 µM (active). The GI50 (OVCAR-8) was 15.5 µM (inactive), the GI50 (SW-620) was 22.5 µM (inactive) and the GI50 (786-0) was 18.2 µM (inactive). The GI50 (OVCAR-4) was 2.35 µM (inactive), the GI50 (SK-OV-3) was 10.3 µM (inactive) and the GI50 (DU-145) was 15.6 µM (inactive). For the same compound, the GI50 (HOP-62) was 21.9 µM (inactive), the GI50 (SF-539) was 16.8 µM (inactive) and the GI50 (UACC-257) was 0.656 µM (active). The GI50 (LOX IMVI) was 0.339 µM (active), the GI50 (CCRF-CEM) was 13.6 µM (inactive) and the GI50 (NCI/ADR-RES) was 3.42 µM (inactive). The GI50 (NCI-H226) was 14.8 µM (inactive), the GI50 (TK-10) was 17.6 µM (inactive) and the GI50 (A498) was 12.3 µM (inactive). The GI50 (IGROV-1) was 15.7 µM (inactive), the GI50 (RPMI-8226) was 2.64 µM (inactive) and the GI50 (PC-3) was 9.27 µM (inactive). For the same compound, the GI50 (U-251) was 14.5 µM (inactive), the GI50 (OVCAR-3) was 13.7 µM (inactive) and the GI50 (SNB-19) was 20.1 µM (inactive). The GI50 (UO-31) was 9.27 µM (inactive), the GI50 (SF-268) was 22.4 µM (inactive) and the GI50 (SK-MEL-28) was 12.8 µM (inactive). For the same compound, the GI50 (ACHN) was 8.51 µM (inactive), the GI50 (MDA-MB-231) was 12.6 µM (inactive) and the GI50 (NCI-H522) was 4.53 µM (inactive). The GI50 (KM12) was 2.03 µM (inactive), the GI50 (MDA-N) was 11.3 µM (inactive) and the GI50 (HL-60) was 4.6 µM (inactive). For the same compound, the GI50 (T47D) was 1.25 µM (inactive), the GI50 (SR) was 0.507 µM (active) and the GI50 (A549) was 1.76 µM (inactive). For the same compound, the GI50 (HCT-15) was 15.7 µM, the GI50 (K562) was 0.0843 µM (active) and the GI50 (Hs-578T) was 15.9 µM (inactive). The GI50 (HCT-116) was 12.6 µM (inactive), the GI50 (UACC-62) was 11.6 µM (inactive) and the GI50 (RXF 393) was 18.8 µM (inactive). The GI50 (Malme-3M) was 3.22 µM (inactive), the GI50 (COLO 205) was 2.37 µM (inactive) and the GI50 (MCF7) was 0.687 µM (active). The GI50 (BT-549) was 11.7 µM (inactive), the GI50 (HOP-92) was 12.5 µM (inactive) and the GI50 (SK-MEL-2) was 12 µM (inactive). The GI50 (SN12C) was 23.2 µM (inactive), the GI50 (SNB-75) was 12.5 µM (inactive) and the GI50 (MOLT-4) was 10.3 µM (inactive). For the same compound, the GI50 (EKVX) was 0.264 µM (active), the GI50 (M14) was 13.1 µM (inactive) and the GI50 (MDA-MB-435) was 12.6 µM (inactive). For the same compound, the GI50 (CAKI-1) was 11.9 µM (inactive), the GI50 (HT-29) was 4.34 µM (inactive) and the GI50 (OVCAR-5) was 20.1 µM (inactive). For the same compound, the GI50 (SK-MEL-5) was 0.71 µM (active) and the GI50 (HCC 2998) was 3.94 µM (inactive).
